Test results published in the supplement of paper PMC10307832.

Legend:
Experiment in all cases: relative viability (nuclei count vs DMSO), 5 days (fraction); higher = more cells survive
[1] = compound: CC1=C(C(=NN1)C)CC2=C(C3=C(S2)N(C(=O)N(C3=O)C)CC(C)C)C(=O)N4C[C@@H](CO4)O + CC(=O)c1c(C)c2cnc(Nc3ccc(N4CCNCC4)cn3)nc2n(C2CCCC2)c1=O [Palbociclib] (partner 0.5 µM)
How it was run: (§1)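 Relative viability divides the nuclei count in treated wells by that in vehicle wells. Lung cancer cell lines were seeded in 1536-well plates, dosed by pin tool the next day, and fixed and stained after 5 days in one step with final 0.05% Triton X-100, 1% formaldehyde and 1 ug/ml Hoechst. Dosing was a single drug or a fixed anchor-drug dose plus five library-drug doses (not always all listed) in √10 steps, and values are medians of duplicate plates imaged at 4×.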

IDH-C35 + Decitabine = compound: Cc1ccccc1C(C(=O)NC1CCCCC1)N(C(=O)Cn1ccnc1C)c1cccc(F)c1 [IDH-C35] + Nc1ncn([C@H]2C[C@H](O)[C@@H](CO)O2)c(=O)n1 [Decitabine] (partner 2 µM)
How it was run: as §1

[2] = compound: CC1=C(C(=NN1)C)CC2=C(C3=C(S2)N(C(=O)N(C3=O)C)CC(C)C)C(=O)N4C[C@@H](CO4)O + Nc1nc2[nH]cc(CCc3ccc(C(=O)N[C@@H](CCC(=O)O)C(=O)O)cc3)c2c(=O)[nH]1 [Pemetrexed] (partner 0.2 µM)
How it was run: as §1

IDH-C35 + Alpelisib = compound: Cc1ccccc1C(C(=O)NC1CCCCC1)N(C(=O)Cn1ccnc1C)c1cccc(F)c1 [IDH-C35] + Cc1nc(NC(=O)N2CCC[C@H]2C(N)=O)sc1-c1ccnc(C(C)(C)C(F)(F)F)c1 [Alpelisib] (partner 2 µM)
How it was run: as §1

Row | Cell Line | relative viability ([1]; first compound 0.0025 µM) | relative viability ([1]; first compound 0.007906 µM) | relative viability ([1]; first compound 0.025 µM) | relative viability ([1]; first compound 0.07906 µM) | relative viability ([1]; first compound 0.25 µM) | relative viability (IDH-C35 + Decitabine; first compound 0.08 µM) | relative viability (IDH-C35 + Decitabine; first compound 0.253 µM) | relative viability (IDH-C35 + Decitabine; first compound 0.8 µM) | relative viability (IDH-C35 + Decitabine; first compound 2.53 µM) | relative viability (IDH-C35 + Decitabine; first compound 8 µM) | relative viability ([2]; first compound 0.0025 µM) | relative viability ([2]; first compound 0.007906 µM) | relative viability ([2]; first compound 0.025 µM) | relative viability ([2]; first compound 0.07906 µM) | relative viability ([2]; first compound 0.25 µM) | relative viability (IDH-C35 + Alpelisib; first compound 0.08 µM) | relative viability (IDH-C35 + Alpelisib; first compound 0.253 µM) | relative viability (IDH-C35 + Alpelisib; first compound 0.8 µM) | relative viability (IDH-C35 + Alpelisib; first compound 2.53 µM) | relative viability (IDH-C35 + Alpelisib; first compound 8 µM)
1 | NCI-H838 | 0.206 | 0.193 | 0.182 | 0.275 | 0.182 | 0.446 | 0.414 | 0.468 | 0.464 | 0.486 | 0.261 | 0.229 | 0.236 | 0.243 | 0.224 | 1.03 | 0.92 | 0.951 | 0.93 | 0.949
2 | NCI-H1755 | 0.452 | 0.462 | 0.412 | 0.424 | 0.45 | 0.685 | 0.639 | 0.757 | 0.708 | 0.708 | 0.42 | 0.424 | 0.424 | 0.425 | 0.422 | 0.976 | 0.875 | 0.955 | 0.927 | 0.877
3 | HCC-78 | 0.534 | 0.546 | 0.464 | 0.469 | 0.44 | 0.701 | 0.579 | 0.703 | 0.605 | 0.707 | 0.904 | 0.887 | 0.897 | 0.951 | 0.925 | 0.361 | 0.323 | 0.322 | 0.397 | 0.331
4 | IA-LM | – | – | – | – | – | – | – | – | – | – | – | – | – | – | – | 0.998 | 0.9 | 0.793 | 0.761 | 0.584
5 | NCI-H322M | 0.557 | 0.467 | 0.536 | 0.441 | 0.505 | 0.686 | 0.701 | 0.695 | 0.718 | 0.78 | 0.526 | 0.61 | 0.645 | 0.629 | 0.578 | 0.878 | 0.818 | 0.743 | 0.806 | 0.837
6 | NCI-H3122 | 0.165 | 0.241 | 0.205 | 0.176 | 0.209 | 0.432 | 0.428 | 0.386 | 0.473 | 0.458 | 0.196 | 0.202 | 0.185 | 0.187 | 0.216 | 0.904 | 0.739 | 0.729 | 0.78 | 0.849
7 | COR-L23 | 0.291 | 0.266 | 0.238 | 0.245 | 0.318 | 0.426 | 0.471 | 0.421 | 0.478 | 0.459 | 0.22 | 0.214 | 0.195 | 0.223 | 0.204 | 0.759 | 0.765 | 0.782 | 0.769 | 0.746
8 | NCI-H2087 | 0.244 | 0.264 | 0.193 | 0.16 | 0.223 | 0.284 | 0.25 | 0.274 | 0.302 | 0.254 | 0.575 | 0.675 | 0.629 | 0.587 | 0.695 | 1.11 | 1.13 | 1.05 | 1.09 | 0.874
9 | LC-2-ad | 0.46 | 0.518 | 0.456 | 0.467 | 0.55 | 0.73 | 0.839 | 0.847 | 0.764 | 0.782 | 0.27 | 0.25 | 0.26 | 0.285 | 0.261 | 0.888 | 0.815 | 0.834 | 0.894 | 0.921
10 | ChaGo-K-1 | 0.956 | 0.937 | 0.943 | 0.878 | 0.931 | 0.507 | 0.531 | 0.535 | 0.533 | 0.531 | 0.26 | 0.261 | 0.261 | 0.254 | 0.249 | – | – | – | – | –
11 | NCI-H522 | 1.08 | 1.02 | 0.852 | 0.521 | 0.618 | 0.604 | 0.795 | 0.72 | 0.652 | 0.716 | 1.14 | 1.37 | 0.98 | 0.54 | 0.643 | – | – | – | – | –
12 | NCI-H1299 | – | – | – | – | – | – | – | – | – | – | – | – | – | – | – | 1.06 | 1.02 | 1.09 | 1.05 | 1.04
13 | NCI-H1650 | 0.344 | 0.351 | 0.374 | 0.327 | 0.347 | 0.417 | 0.358 | 0.408 | 0.465 | 0.453 | 0.321 | 0.406 | 0.367 | 0.369 | 0.321 | – | – | – | – | –
14 | NCI-H1648 | 0.261 | 0.271 | 0.297 | 0.207 | 0.283 | – | 0.598 | 0.502 | 0.51 | 0.441 | 0.69 | 0.783 | 0.61 | 0.502 | 0.673 | – | – | – | – | –
15 | NCI-H596 | – | – | – | – | – | 1.06 | 1.04 | 0.933 | 0.853 | 1.02 | 0.481 | 0.544 | 0.484 | 0.481 | 0.488 | 0.552 | 0.48 | 0.555 | 0.471 | 0.446
16 | NCI-H727 | 0.697 | 0.655 | 0.676 | 0.682 | 0.679 | 0.797 | 0.979 | 0.708 | 0.845 | 0.939 | – | – | – | – | – | 0.536 | 0.719 | 0.543 | 0.582 | 0.83
17 | NCI-H2342 | 0.514 | 0.562 | 0.442 | 0.502 | 0.593 | 0.719 | 0.745 | 0.757 | 0.714 | 0.744 | 0.748 | 0.859 | 0.719 | 0.72 | 0.65 | – | – | – | – | –
18 | SW 900 | 0.541 | 0.583 | 0.624 | 0.497 | 0.651 | 0.467 | 0.396 | – | 0.472 | 0.438 | 0.489 | 0.456 | 0.489 | 0.529 | 0.434 | – | – | – | – | –
19 | A549 | – | – | – | – | – | 0.313 | 0.263 | 0.312 | 0.195 | 0.223 | – | – | – | – | – | 0.734 | 0.871 | 0.771 | 0.744 | 0.726
20 | NCI-H1563 | – | – | – | – | – | – | – | – | – | – | 0.796 | 0.795 | 0.686 | 0.742 | 0.857 | 0.947 | 0.877 | 1.01 | 0.84 | 0.925
21 | ABC-1 | 0.72 | 0.445 | – | 0.638 | 0.729 | 0.838 | 1.12 | 0.975 | 0.98 | 0.95 | – | – | – | – | – | 0.907 | 1.03 | 1 | 1.05 | 0.857
